Key:
Cytotoxicity assay = format: cell-based, human; conditions: human, HEK293 human embryonic kidney cells, mean (n = 2), read-out: Cytotoxicity (IC50), concentration of compound at 50% cytotoxicity
Description: (§1) Cytotoxicity assays were conducted using the protocols previously reported.

[1] = system: HEK293 human embryonic kidney cells; test: Cytotoxicity assay; format: cell-based; conditions: mean (n = 2)
Description: as §1

A. baumannii AYE [2] = test: Antibiotic potentiation by 13b, A. baumannii; format: cell-based, Acinetobacter baumannii
Description: (§2) Antibiotic enhancer concentrations were determined using previously reported protocols.
(§3) The antibiotic-enhancing activities of 13b, the strongest non-toxic doxycycline enhancer, were further evaluated with an expanded set of antibiotics (minocycline, chloramphenicol, vancomycin, nalidixic acid and erythromycin) against three drug-resistant strains of Gram-negative bacteria (P. aeruginosa, K. pneumoniae and A. baumannii) (Table 3). […] However, 13b was able to strongly potentiate the activity of minocycline against P. aeruginosa, K. pneumoniae and A. baumannii (>41-fold, >82-fold and >82-fold, respectively) while also enhancing the activity of doxycycline against P. aeruginosa (>40-fold). The enhancing activity of doxycycline against A. baumannii and K. pneumoniae was not investigated due to its sensitivity to these strains.

K. pneumoniae ATCC 13883 [3] = test: Antibiotic potentiation by 13b, K. pneumoniae; format: cell-based, Klebsiella pneumoniae
Description: as §2, §3

P. aeruginosa PAO1 [4] = test: Antibiotic potentiation by 13b, P. aeruginosa PAO1; format: cell-based, Pseudomonas aeruginosa
Description: as §2, §3

A. baumannii AYE [5] = test: Intrinsic MIC, A. baumannii AYE; format: cell-based; conditions: Acinetobacter baumannii; A. baumannii AYE; substance alone; read-out: MIC alone, A. b
Description: as §2

S. aureus ATCC 25923 = test: Antimicrobial MIC, S. aureus; format: cell-based; conditions: Staphylococcus aureus, ATCC25923, mean (n = 3)
Description: (§4) The susceptibility of bacterial strains S. aureus (ATCC 25923), E. coli (ATCC 25922) and P. aeruginosa (ATCC 27853) to antibiotics and compounds was determined using protocols reported previously. Additional antimicrobial evaluation against MRSA (ATCC 43300), Klebsiella pneumoniae (ATCC 700603), Acinetobacter baumannii (ATCC 19606), Candida albicans (ATCC 90028) and Cryptococcus neoformans (ATCC 208821) was undertaken at the Community for Open Antimicrobial Drug Discovery at The University of Queensland (Australia) according to their standard protocols reported previously.

E. coli ATCC 25922 [6] = test: Erythromycin enhancement against E. coli; format: cell-based, Escherichia coli; conditions: erythromycin fixed at 10.9 µM (8 µg/mL)
Description: as §2

human red blood cells = test: Hemolytic assay; format: cell-based; conditions: mean (n = 2)
Description: Hemolysis assays were conducted using the protocols previously reported.

P. aeruginosa PAO1 [7] = test: Intrinsic MIC, P. aeruginosa PAO1; format: cell-based; conditions: Pseudomonas aeruginosa; P. aeruginosa PAO1; substance alone (no antibiotic / no enhancer); read-out: MIC alone, P. a
Description: as §2

P. aeruginosa ATCC 27853 [8] = test: Antimicrobial MIC, P. aeruginosa; format: cell-based; conditions: Pseudomonas aeruginosa, ATCC27853, mean (n = 3)
Description: as §4

E. coli ATCC 25922 [9] = test: Antimicrobial MIC, E. coli; format: cell-based, Escherichia coli; conditions: mean (n = 3)
Description: as §4

MRSA ATCC 43300 = test: Antimicrobial MIC, MRSA (CO-ADD); format: cell-based, methicillin-resistant S. aureus; conditions: Staphylococcus aureus; MRSA ATCC 43300; mean (n = 2); read-out: MIC MRSA
Description: as §4

C. albicans ATCC 90028 = test: Antifungal MIC, C. albicans (CO-ADD); format: cell-based; conditions: Candida albicans, ATCC90028, mean (n = 2)
Description: as §4

K. pneumoniae ATCC 13883 [10] = test: Intrinsic MIC, K. pneumoniae ATCC 13883; format: cell-based; conditions: Klebsiella pneumoniae, ATCC13883; K. pneumoniae ATCC 13883; substance alone; read-out: MIC alone, K. p
Description: as §2

P. aeruginosa ATCC 27853 [11] = test: Doxycycline enhancement against P. aeruginosa; format: cell-based, Pseudomonas aeruginosa; conditions: doxycycline fixed at 4.5 µM
Description: as §2
We then evaluated the set of analogues for the ability to enhance the antibiotic activity of doxycycline against P. aeruginosa ATCC 27853 and of erythromycin against E. coli ATCC 25922 (Table 2). In the case of doxycycline, a fixed concentration of the antibiotic of 4.5 μM, which is twenty-fold lower than the intrinsic MIC 90 μM against this organism, was used. Each of the test compounds was then evaluated at a range of concentrations varying from 3.125 to 50–100 μM, with the upper concentration dependent upon the compounds intrinsic MIC towards P. aeruginosa (Table 1). […] While the observation of cytotoxicity/hemolytic properties of 16a–c, 14f and 13f reduces our interest in these analogues, analogues 13b and 13d were identified as non-toxic and strong enhancers of the action of doxycycline towards P. aeruginosa.

[12] = system: C. neoformans ATCC 208821; test: Antifungal MIC, C. neoformans (CO-ADD); format: cell-based; conditions: Cryptococcus neoformans, ATCC208821, mean (n = 2)
Description: as §4

P. aeruginosa = system: P. aeruginosa; set-up: method as in PMID 36982955; conditions: cited from earlier work
[13] = system: antimicrobial activity (microbes not named); set-up: method as in PMID 36982955; conditions: cited from earlier work
[14] = Escherichia coli, ATCC25922, E. coli ATCC 25922

SMILES: O=C(C=Cc1ccccc1)NCCCNCCCCCCNCCCNC(=O)C=Cc1ccccc1.O=C(O)C(F)(F)F.O=C(O)C(F)(F)F [Compound 13b, N^1,N^6-Bis(3-cinnamamidopropyl)hexane-1,6-diaminium 2,2,2-trifluoroacetate]
- IC50 (Cytotoxicity assay): > 44.5 µM
- Cytotoxicity (IC50), concentration of compound at 50% cytotoxicity [1]: non-toxic
- Fold change, chloramphenicol (A. baumannii AYE [2]; chloramphenicol 2 µg/mL): > 4 fold
- Concentration for potentiation of chloramphenicol (A. baumannii AYE [2]; chloramphenicol 2 µg/mL, n = 2): 77.4 µM
- Fold change, erythromycin (A. baumannii AYE [2]; erythromycin 2 µg/mL): > 2 fold
- Concentration for potentiation of erythromycin (A. baumannii AYE [2]; erythromycin 2 µg/mL, n = 2): 136 µM
- Fold change, minocycline (A. baumannii AYE [2]; minocycline 2 µg/mL): > 82 fold
- Concentration for potentiation of minocycline (A. baumannii AYE [2]; minocycline 2 µg/mL, n = 2): 3.41 µM
- Concentration for potentiation of nalidixic acid (A. baumannii AYE [2]; nalidixic acid 2 µg/mL, n = 2): >200 µM
- Fold change, vancomycin (A. baumannii AYE [2]; vancomycin 2 µg/mL): > 2 fold
- Concentration for potentiation of vancomycin (A. baumannii AYE [2]; vancomycin 2 µg/mL, n = 2): 138 µM
- Concentration for potentiation of chloramphenicol (K. pneumoniae ATCC 13883 [3]; chloramphenicol 2 µg/mL, n = 2): >200 µM
- Concentration for potentiation of erythromycin (K. pneumoniae ATCC 13883 [3]; erythromycin 2 µg/mL, n = 2): >200 µM
- Fold change, minocycline (K. pneumoniae ATCC 13883 [3]; minocycline 2 µg/mL): > 82 fold
- Concentration for potentiation of minocycline (K. pneumoniae ATCC 13883 [3]; minocycline 2 µg/mL, n = 2): 3.41 µM
- Concentration for potentiation of nalidixic acid (K. pneumoniae ATCC 13883 [3]; nalidixic acid 2 µg/mL, n = 2): >200 µM
- Fold change, vancomycin (K. pneumoniae ATCC 13883 [3]; vancomycin 2 µg/mL): > 2 fold
- Concentration for potentiation of vancomycin (K. pneumoniae ATCC 13883 [3]; vancomycin 2 µg/mL, n = 2): 138 µM
- Fold change, chloramphenicol (P. aeruginosa PAO1 [4]; chloramphenicol 2 µg/mL): > 7 fold
- Concentration for potentiation of chloramphenicol (P. aeruginosa PAO1 [4]; chloramphenicol 2 µg/mL, n = 2): 38.7 µM
- Fold change, doxycycline (P. aeruginosa PAO1 [4]; doxycycline 2 µg/mL): > 40 fold
- Concentration for potentiation of doxycycline (P. aeruginosa PAO1 [4]; doxycycline 2 µg/mL, n = 2): 7.03 µM
- Fold change, erythromycin (P. aeruginosa PAO1 [4]; erythromycin 2 µg/mL): > 2 fold
- Concentration for potentiation of erythromycin (P. aeruginosa PAO1 [4]; erythromycin 2 µg/mL, n = 2): 136 µM
- Fold change, minocycline (P. aeruginosa PAO1 [4]; minocycline 2 µg/mL): > 41 fold
- Concentration for potentiation of minocycline (P. aeruginosa PAO1 [4]; minocycline 2 µg/mL, n = 2): 6.83 µM
- MIC (A. baumannii AYE [5]): > 278 µM
- MIC (S. aureus ATCC 25923): > 200 µM
- Eryth/E. c: concentration required to restore erythromycin activity (E. coli ATCC 25922 [6]): 25 µM
- Eryth/E. c: fold change (intrinsic MIC of test compound / combination MIC) (E. coli ATCC 25922 [6]): 4 fold
- Hemolysis (HC10), concentration of compound at 10% hemolytic activity (human red blood cells): >44.5 µM
- MIC (P. aeruginosa PAO1 [7]): > 278 µM
- MIC (P. aeruginosa ATCC 27853 [8]): > 200 µM
- MIC (E. coli ATCC 25922 [9]; [14]): 100 µM
- MIC (MRSA ATCC 43300): > 44.5 µM
- MIC (C. albicans ATCC 90028): > 44.5 µM
- MIC (K. pneumoniae ATCC 13883 [10]): > 278 µM
- Dox/P. a: concentration required to restore doxycycline activity (P. aeruginosa ATCC 27853 [11]): 3.125 µM
- MIC [12]: 44.5 µM

SMILES: O=C(C=Cc1ccccc1)NCCCNCCCCCCCCNCCCNC(=O)C=Cc1ccccc1.O=C(O)C(F)(F)F.O=C(O)C(F)(F)F [Compound 13d, N^1,N^8-Bis(3-cinnamamidopropyl)octane-1,8-diaminium 2,2,2-trifluoroacetate]
- IC50 (Cytotoxicity assay): > 42.9 µM
- Cytotoxicity (IC50), concentration of compound at 50% cytotoxicity [1]: non-toxic
- MIC (S. aureus ATCC 25923): 100 µM
- Eryth/E. c: concentration required to restore erythromycin activity (E. coli ATCC 25922 [6]): 25 µM
- Eryth/E. c: fold change (intrinsic MIC of test compound / combination MIC) (E. coli ATCC 25922 [6]): 4 fold
- Hemolysis (HC10), concentration of compound at 10% hemolytic activity (human red blood cells): >42.9 µM
- MIC (P. aeruginosa ATCC 27853 [8]): > 200 µM
- MIC (E. coli ATCC 25922 [9]; [14]): 100 µM
- MIC (MRSA ATCC 43300): 42.8 µM
- MIC (C. albicans ATCC 90028): > 42.8 µM
- Dox/P. a: concentration required to restore doxycycline activity (P. aeruginosa ATCC 27853 [11]): 6.25 µM
- MIC [12]: 42.8 µM

SMILES: COc1ccc(/C=C/C(=O)NCCCNCCCCCCCCNCCCNC(=O)/C=C/c2ccc(OC)cc2)cc1.O=C(O)C(F)(F)F.O=C(O)C(F)(F)F [Compound 14d, N^1,N^8-Bis(3-((E)-3-(4-methoxyphenyl)acrylamido)propyl)octane-1,8-diaminium 2,2,2-trifluoroacetate]
- IC50 (Cytotoxicity assay): > 39.7 µM
- Cytotoxicity (IC50), concentration of compound at 50% cytotoxicity [1]: does not exhibit cytotoxicity/hemolysis
- MIC (S. aureus ATCC 25923): 7.75 µM
- Eryth/E. c: concentration required to restore erythromycin activity (E. coli ATCC 25922 [6]): 62 µM
- Eryth/E. c: fold change (intrinsic MIC of test compound / combination MIC) (E. coli ATCC 25922 [6]): 1 fold
- MIC (P. aeruginosa ATCC 27853 [8]): 248 µM
- MIC (E. coli ATCC 25922 [9]; [14]): 62 µM
- MIC (MRSA ATCC 43300): ≤ 0.31 µM
- MIC (C. albicans ATCC 90028): > 39.7 µM
- Dox/P. a: concentration required to restore doxycycline activity (P. aeruginosa ATCC 27853 [11]): 15.5 µM
- Dox/P. a: fold change (intrinsic MIC of test compound / combination MIC) (P. aeruginosa ATCC 27853 [11]): 16 fold

SMILES: COc1c(Br)cc(/C=C/C(=O)NCCCNCCCCCCCCCCCCNCCCNC(=O)/C=C/c2cc(Br)c(OC)c(Br)c2)cc1Br.O=C(O)C(F)(F)F.O=C(O)C(F)(F)F [Compound 16f, N^1,N^12-Bis(3-((E)-3-(3,5-dibromo-4-methoxyphenyl)acrylamido)propyl)dodecane-1,12-diaminium 2,2,2-trifluoroacetate]
- IC50 (Cytotoxicity assay): 1.44 µM
- MIC (S. aureus ATCC 25923): 5.3 µM
- Eryth/E. c: concentration required to restore erythromycin activity (E. coli ATCC 25922 [6]): 5.30 µM
- Eryth/E. c: fold change (intrinsic MIC of test compound / combination MIC) (E. coli ATCC 25922 [6]): 1 fold
- Hemolysis (HC10), concentration of compound at 10% hemolytic activity (human red blood cells): 0.24 µM
- MIC (P. aeruginosa ATCC 27853 [8]): > 170 µM
- MIC (E. coli ATCC 25922 [9]; E. coli ATCC 25922): 5.30 µM
- MIC (E. coli ATCC 25922 [9]; [14]): 5.3 µM
- MIC (MRSA ATCC 43300): ≤ 0.21 µM
- MIC (C. albicans ATCC 90028): ≤ 0.21 µM
- Dox/P. a: concentration required to restore doxycycline activity (P. aeruginosa ATCC 27853 [11]): 42.4 µM
- Dox/P. a: fold change (intrinsic MIC of test compound / combination MIC) (P. aeruginosa ATCC 27853 [11]): > 4 fold
- MIC [12]: ≤ 0.21 µM

SMILES: O=C(CCc1ccccc1)NCCCNCCCCCCNCCCNC(=O)CCc1ccccc1 [Compound 17]
- Ability to enhance the action of doxycycline towards P. aeruginosa (P. aeruginosa): devoid
- Antimicrobial activity [13]: devoid of antimicrobial activity

SMILES: O=C(CCc1ccccc1)NCCCNCCCCCCCCNCCCNC(=O)CCc1ccccc1 [Compound 18]
- Ability to enhance the action of doxycycline towards P. aeruginosa (P. aeruginosa): devoid
- Antimicrobial activity [13]: devoid of antimicrobial activity

Reference: publication PMC10377643, “Exploration of Bis-Cinnamido-Polyamines as Intrinsic Antimicrobial Agents and Antibiotic Enhancers” (Biomolecules, 2023)
